This is an account of results in PMC12677843, “Multidisciplinary Preclinical Investigations on Ferrocenyl, Ruthenocenyl, and Benzyl Derivatives of Niridazole as New Drug Candidates against Schistosomiasis” (Chemmedchem, 2025).

Data set [1] has as its system adult S. mansoni. The data set is described as follows: In vitro drug sensitivity assay on adult S. mansoni (microscopic viability scoring). The note with it: for drug effect at 50 µM on adult S. mansoni: 72 h incubation, normalized to DMSO control, active if ≥60%; for EC50: 72 h drug exposure, 37 °C, 5% CO2, read-out: EC50 on adult S. mansoni, 72 h. Format: cell-based, Schistosoma mansoni. The protocol:
Figure 3 In vitro activity at 50 µM of the 12 compounds on adult S. mansoni. Adult schistosomes were incubated in culture media for 72 h at 37 °C and 5% CO2 with either compound (50 µM) or a DMSO (0.5%) control. The viability of the worms was microscopically evaluated and scored (0—3, in 0.5 steps) every 24 h. Results are from two independent experiments, each performed in duplicate. Drug activities were normalized to the DMSO controls. Data represent mean ± SD in percentage of DMSO control. […]
In vitro evaluation on adult S. mansoni
After a week for acclimatization to the new environment with controlled conditions (temperature: 22 °C ± 2 °C, humidity: 50 % ± 10 %, 12:12 h light/dark photocycle), four-week-old female NMRI mice (Charles River, Sulzfeld, Germany) were subcutaneously infected with approximately 100 cercariae to establish the S. mansoni infection. In the S. mansoni infected mice the worms were allowed to develop for 7 weeks into the adult stage, before they were extracted from the mesenteric veins of the euthanized mice. The adult worms were placed into RPMI 1640 (Gibco, Waltham MA, USA) medium supplemented with 1 % penicillin/streptomycin mixture and 5 % iFCS at 37 °C and 5 % CO 2. The drug sensitivity assay was set up in a 24-well plate with two wells containing each two pairs of S. mansoni worms per compound and concentration.
The final volume per well was 2 mL, containing the culture medium and the corresponding amount of drug dissolved in DMSO. The maximum concentration tested was 50 µM, corresponding to 0.5 % DMSO, to which all the other wells were adapted […]
to, so that all test concentrations contained always the same amount of DMSO.
Additionally, 2 wells with negative controls containing only DMSO and the culture medium were included. After an incubation period of 72 h at 37 °C and 5 % CO 2, the worms were microscopically evaluated. The drug effect was determined 24, 48 and 72 h post-exposure based on the phenotype of the adult worms, using a viability scale ranging from three referring to viable, motile worms with no change in their tegument to zero standing for the death of the worms.
All described in vitro studies with mice involved, were conducted at the Swiss Tropical and Public Health Institute, first in Basel, later in Allschwil, and had the approval by the corresponding veterinary authorities of the Canton Basel-Stadt (permit no. 2070)

The test system of data set [2] is S. mansoni newly transformed schistosomula (NTS). The data set is described as follows: In vitro evaluation on newly transformed schistosomula (NTS). Format: cell-based, Schistosoma mansoni. Particulars: for EC50: 72 h incubation, 37 °C, 5% CO2. The protocol: 2. Experimental section for biological experiments
Stock solutions of the test compounds
Stock solution of a concentration of 10 mM in pure DMSO (Sigma-Aldrich, Switzerland) were prepared of the 12 compounds, these stock solutions were used for all in vitro evaluations from activity tests in S. mansoni to the cytotoxic determinations in HUH7 hepatocyte-derived carcinoma cells, and in SH-SY5Y neuroblastoma cells.
The solutions were thoroughly vortexed and sonicated to enable a good dissolution of the compounds and homogenous stock solutions.
2.1 In vitro evaluations in S. mansoni
In vitro evaluation on newly transformed schistosomula (NTS)
To obtain newly transformed schistosomula (NTS) the lifecycle of S. mansoni (strain originates from West Africa, Liberia) is maintained at the Swiss Tropical and Public Health Institute (Swiss TPH). As previously described, cercariae are collected from infected Biomphalaria glabrata snails and then mechanically transformed into NTS. 8 After HBSS (Gibco, Waltham MA, USA) washing to get rid of the detached tails, the NTS were kept overnight (min. 12 h, max. 24 h) in culture medium at 37 °C and 5 % CO2 to complete their transformation process, before the drug sensitivity assay was started. The drug assays were performed in the same culture medium consisting of medium M199 (Gibco, Waltham MA, USA) supplemented with 5 % v/v inactivated fetal calf serum (iFCS; Bioconcept AG, Allschwil, Switzerland), 1% antibiotics mixture developed by Mäser et al., 9 and 1 % penicillin 10,000 U/mL, and streptomycin 10 mg/mL solution (Sigma-Aldrich, Buchs, Switzerland). The assay was performed in a 96-well plate, with 30−40 NTS per well in a final volume of 250 μL. NTS incubated in culture medium containing 0.5 % DMSO but no drug served as negative controls.
Microscopic evaluation was performed after 24, 48 and 72 h of incubation of the parasites at 37 °C and 5 % CO 2. Their overall viability was scored from 0 (death) to 3 (full viability) by a phenotypic screening method based on their motility, morphology, […]
and granularity. […]

Data set [3] deals with SH-SY5Y cells. As to the kind of experiment: SYTOX cell viability assay, SH-SY5Y. Format: cell-based, human. The note with it: 20 µM, 24 h, serum-free charcoal-treated medium, vs DMSO control (0.2%), mean. The protocol:
The SYTOX cell viability assay was performed in SHSY5Y cells. Cells were treated with either compound (20 µM) or DMSO control (0.2%) for 24 h at 37 °C and 5% CO2 in serum‐free charcoal‐treated medium. Results were normalized to the DMSO control. Mean ± SD was calculated from three independent experiments, each performed in quadruplicate. […]
serum-free media containing either treatment at a concentration of 20 µM or DMSO (ITW Reagents Cat A3672) control (0.2 %).
Following 24 h of incubation, 12.5 μL of an XTT/phenazine methosulfate (PMS) (XTT Sigma Aldrich cat X4626, PMS Serva CAT: 3203) 0.02solution (1 mg/mL XTT and 7.5 μg/mL PMS) was added to each well. Absorbance was measured using a microplate reader (Biotek Synergy HT) at 450 nm (signal) and 650 nm (background), 2 h after the addition of the XTT/PMS solution. Individual backgrounds were subtracted and all results were normalized to DMSO control. Mean ± SD was determined from three independent experiments, each performed in quintuplicate.
SYTOX cell viability assay
The cytotoxic potential was additionally evaluated using the staining-based SYTOX viability assay. […] Data was acquired on the BioTeck Cytation5 microscope and evaluated by the manufacturer’s software (Gen5 Image Prime Version 3.12). […] Mean ± SD was determined from three independent experiments, each performed in quadruplicate. […]

Data set [4] concerns juvenile S. mansoni. The data set is described as follows: In vitro drug sensitivity assay on juvenile S. mansoni. It counts as cell-based, Schistosoma mansoni. Particulars: 72 h incubation, 37 °C, 5% CO2. The protocol: Juvenile worms were gained through cultivation of NTS as previously described. 10 In short, NTS were obtained as described above, then directly after the mechanical transformation process the newly transformed schistosomula were placed in a special culturing medium. The culture medium consists of Panserin 401, w: L-Glutamine, serum free all-round medium (Pan Biotech, Aidenbach, Germany) supplemented with 20 % human serum and 500 U/mL penicillin, […] streptomycin (LuBioScience, Switzerland). 96-well transparent polystyrene flat bottom plates were used for the in vitro growth procedure, with 40 to 60 NTS per well in 100 µL culture medium. The bordering wells of the plate were filled solely with medium to counteract evaporation and to keep the humidity as steady as possible. The plates were incubated for 21 days at 5 % CO2 and at 37 °C, with regular medium changes every 3 to 4 days. After the 21 days culturing period, the schistosomulae developed into juveniles. For the drug sensitivity assay, juvenile worms were incubated over 72 h (5 % CO 2 and 37 °C) with the test compound in the same medium, as used for the culturing process. In a 96-well plate, 250 µL medium containing the test compound and six juvenile worms, ideally of both sexes were placed in each well. All compounds were tested twice independently at 50, 10, 5 and 1 µM in duplicates. The viability of the worms was evaluated microscopically after 24, 48 and 72 h of continuous drug exposure using the same phenotypic screening method as described before. […]

A short description of data set [5]: Stability of A2 in DMSO-d6 with D2O (4:1) by 1H NMR. It counts as physicochemical. The note with it: Figure S36; DMSO-d6 with D2O (4:1, v/v). The protocol: Figure S31 DEPT spectrum of C2
1H NMR spectra for stability
Preparation of the control samples for 1H NMR analysis: Compounds B1, D1, A3 and
C2 were dissolved in DMSO- d6. Compound A2 was dissolved in DMSO- d6 with D2O
(4:1, v/v). NMR spectra were recorded in deuterated solvents on Bruker Avance-400
in the room temperature for 0, 6, 24, 30 and 48 hours or 0, 3, 6 and 24 hours. […]

Entries after “also recorded” stand apart in the source; their conditions may differ. Where only a bound is given, the exact number is not on record here.

With `O=C(Nc1ncc([N+](=O)[O-])s1)[c-]1cccc1.[Fe+2].c1cc[cH-]c1` [Compound A1], in data set [1], the “drug effect at 50 µM on adult S. mansoni” value is “No drug effect” and the EC50 (usually the concentration at which the effect is half-maximal) was > 50 µM. In addition, the EC50 in data set [2] is > 50 µM. Also, the “drug effect at 50 µM on S. mansoni NTS” value in data set [2] (highest tested concentration 50 µM) is on record as “No drug effect”. In data set [3], the “reduction of SH-SY5Y cell viability (SYTOX)” value is “did not alter SH‐SY5Y cell viability; also recorded: inactive”.

As for `O=C([c-]1cccc1)N1CCN(c2ncc([N+](=O)[O-])s2)C1=O.[Fe+2].c1cc[cH-]c1` [Compound A2], the “mean drug effect at 10 µM on adult S. mansoni, 24 h” value in data set [1] (10 µM, 24 h, in percentage of DMSO control) stood at 36.97%. In addition, the “mean drug effect at 10 µM on adult S. mansoni, 48 h” value in data set [1] (10 µM, 48 h, in percentage of DMSO control) amounted to 46.61%. Further, in data set [1] (10 µM, 72 h, in percentage of DMSO control), the “mean drug effect at 10 µM on adult S. mansoni, 72 h” value is 56.40%. The “drug effect at 50 µM on adult S. mansoni” value in data set [1] is “more active”. For the same compound, the EC50 in data set [1] was 8.2 µM; in data set [4], 6.35 µM; in data set [2], 2 µM. The “stability under warm and moist conditions” value in data set [5] is on record as “stable”.
